Data published in US6461997B1, “Triazole sulfones having herbicidal activity” (Monsanto Technology LLC, priority 1999, dated 2002).

What was measured:
[1] = tested on: BRAPP (broadleaf signalgrass); assay: Pre-emergence herbicidal activity, warm season; type: in vivo, Brachiaria platyphylla; details: for Pre-emergence activity (GR80) BRAPP: GR80 = lowest tested rate (300, 100, 30, 10 g/ha) with 80% or greater inhibition, approx. 14 days after treating, 30/21° C.
Summary of the method: (§1)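 GR80 values derive from percent inhibition relative to untreated plants, read roughly 14 days after sowing and pre-emergence soil-surface treatment (compound in 50:50 acetone/water; rates typically 10, 30, 100, 300 g/ha). Warm-season weeds grew at 30/21° C day/night, cool-season ones at 18/13° C; an asterisk marks activity without reaching 80% at the highest rate.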

POLCO (wild buckwheat) = assay: Pre-emergence herbicidal activity, cool season; type: in vivo, Polygonum convolvulus; details: lowest tested rate with 80% or greater inhibition; rates 300, 100, 30, 10 g/ha; about 14 days
Summary of the method: as §1

BROTE (downy brome) = assay: Post-emergence herbicidal activity, cool season; type: in vivo, Bromus tectorum; details: abraded plants sprayed at 300, 100, 30 and 10 g/ha; about 14 days after treatment
Method: In another set of tests, the post-emergence activity of compounds of this invention was evaluated on the cool season species listed above. The following procedure was used.
A pre-prepared topsoil mixture (described above) was placed in a pot and compacted to a depth of 1.0 to 1.25 cm from the top of the pot. Seeds of each of several monocotyledonous and dicotyledonous annual plant species were placed on top of the soil. The seeds were covered with a mixture of 50% topsoil and 50% Rediearth™ in sufficient quantity to level-fill the pots. The pots were then placed on a greenhouse bench and subirrigated as needed.
When plants growing from the seeds had emerged and reached a suitable growth stage for post-emergence treatment, typically 9 to 14 days after planting, above-ground parts of the plants were subjected to a pre-treatment involving abrasion to create greater opportunity for foliar uptake of subsequently applied compounds. Abrasion was performed using garnet 200w particles applied with a Sears Craftsman hand-held sandblaster operated at approximately 850 kPa (50 psig) pressure.
A known amount of each test compound dissolved or suspended in an appropriate organic solvent was diluted with a 50:50 mix of acetone and water and applied to the plants by spraying with a standard spray nozzle in a spray volume of […] at a spray pressure of 511 kPa (30 psig). Only the compounds of Examples 1, 8-15 and 17-22 were included in post-emergence tests. Application rates for these compounds were 300, 100, 30 and 10 g/ha. Control plants were abraded but not sprayed.
After treatment the plants were placed in a greenhouse with an 18/13° C. day/night temperature regime and were subsequently watered as needed for growth. Approximately 14 days after treatment, the plants were observed and herbicidal efficacy recorded as percent inhibition by comparison with control plants. GR80 values were assigned for each compound as described above for the pre-emergence tests.

[2] = tested on: AGSST (creeping bentgrass); assay: Pre-emergence herbicidal activity, cool season; type: in vivo, Agrostis stolonifera; details: GR80 = lowest tested rate (300, 100, 30, 10 g/ha) with 80% or greater inhibition; approx. 14 days after treating; 18/13° C.
Summary of the method: as §1

[3] = tested on: AEGCY (jointed goatgrass); assay: Pre-plant incorporated (PPI) herbicidal activity, cool season; type: in vivo, Aegilops cylindrica; details: for PPI activity GR80, AEGCY: pre-plant incorporated, lowest tested rate with 80% or greater inhibition, about 14 days
Method: (§2) In another set of tests, the pre-plant incorporated (PPI) activity of compounds of this invention was evaluated on the same species as for the pre-emergence tests described above. In the PPI tests the following procedure, designed to simulate PPI application, was used.
(§3) A pre-prepared topsoil mixture (described above) was placed in a pot and compacted to a depth of 1.0 to 1.25 cm from the top of the pot. Seeds of each of several monocotyledonous and dicotyledonous annual plant species were placed on top of the soil. A sufficient quantity of soil to cover the seeds and level fill the pot was weighed into an open container. A known amount of the test compound was dissolved or suspended in an organic solvent and applied by spraying to this cover soil. The cover soil was thoroughly mixed to distribute the test compound throughout the cover soil, and was then applied as a cover layer over the seeds. Untreated soil was used as a cover layer for control pots. After treatment the plants were placed in a greenhouse where they received 0.64 cm of overhead irrigation. All subsequent watering consisted of a light overhead mist and/or subirrigation as needed for germination and growth. Tables 9 and 10 below relate to warm season plant species which were placed after pre-emergence treatment in a greenhouse with a 30/21° C. day/night temperature regime. Tables 11 and 12 below relates to cool season plant species placed after pre-emergence treatment in a greenhouse or growth chamber with an 18/13° C. day/night temperature regime. Only the compounds of Examples 1, 6, 8, 11, 13 and 15-20 were included in PPI tests.
(§4) Approximately 14 days after planting and treating, the plants were observed and herbicidal efficacy recorded as percent inhibition by comparison with untreated plants.

POAAN (annual bluegrass) = assay: as above; type: in vivo, Poa annua; details: weed, PPI application
Method: as §2, §3, §4

LOLMG (annual ryegrass) = assay: as above; type: in vivo, Lolium multiflorum; details: for PPI activity GR80, LOLMG: pre-plant incorporated, lowest tested rate with 80% or greater inhibition, about 14 days
Method: as §2, §3, §4

[4] = Urochloa platyphylla, pre-emergence application, read-out: Percent inhibition, weed BRAPP
[5] = weed, PPI application, 100 g/ha
[6] = weed, PPI application, 300 g/ha
[7] = weed, PPI application, 900 g/ha

SMILES | Pre-emergence activity (GR80) BRAPP [1] | Pre-emergence activity GR80, POLCO (POLCO (wild buckwheat)) | Post-emergence activity GR80, BROTE (BROTE (downy brome)) | Pre-emergence activity (GR80) AGSST [2] [g/ha] | PPI activity GR80, AEGCY [3] | PPI activity GR80, LOLMG (LOLMG (annual ryegrass)) | Percent inhibition AEGCY ([3]; weed, PPI application, 30 g/ha) [%] | Percent inhibition AEGCY [3, 5] [%] | Percent inhibition AEGCY [3, 6] [%] | Percent inhibition AEGCY [3, 7] [%] | Percent inhibition POAAN (POAAN (annual bluegrass); 30 g/ha) [%] | Percent inhibition POAAN (POAAN (annual bluegrass); 100 g/ha) [%] | Percent inhibition POAAN (POAAN (annual bluegrass); 300 g/ha) [%] | Percent inhibition POAAN (POAAN (annual bluegrass); 900 g/ha) [%] | Percent inhibition LOLMG (LOLMG (annual ryegrass); weed, PPI application, 30 g/ha) [%] | Percent inhibition LOLMG (LOLMG (annual ryegrass); [5]) [%] | Percent inhibition LOLMG (LOLMG (annual ryegrass); [6]) [%] | Percent inhibition LOLMG (LOLMG (annual ryegrass); [7]) [%] | also measured
CCN(CC)C(=O)n1cnc(S(=O)(=O)C(F)(F)Br)n1 [Example 1, 3-(bromodifluoromethylsulfonyl)-1-(N,N-diethylcarbamoyl)-1,2,4-triazole] | * (activity observed, at least at highest rate, but <80% inhibition) | [empty] | [empty] | 30 | [empty] | 300 g/ha | – | – | – | – | – | – | – | – | – | – | – | – | inhibition at 10 g/ha [1, 4]: 0%; inhibition at 30 g/ha [1, 4]: 0%; inhibition at 100 g/ha [1, 4]: 40%; inhibition at 300 g/ha [1, 4]: 70%; inhibition at 30 g/ha ([3]; Aegilops cylindrica, weed, PPI application, 30 g/ha, read-out: Percent inhibition AEGCY): 0%; inhibition at 100 g/ha ([3]; Aegilops cylindrica, weed, PPI application, 100 g/ha, read-out: Percent inhibition AEGCY): 0%; inhibition at 300 g/ha ([3]; Aegilops cylindrica, weed, PPI application, 300 g/ha, read-out: Percent inhibition AEGCY): 40%; inhibition at 900 g/ha ([3]; Aegilops cylindrica, weed, PPI application, 900 g/ha, read-out: Percent inhibition AEGCY): 60%; inhibition at 30 g/ha (POAAN (annual bluegrass); Poa annua, 30 g/ha, read-out: Percent inhibition POAAN): 90%; inhibition at 100 g/ha (POAAN (annual bluegrass); Poa annua, 100 g/ha, read-out: Percent inhibition POAAN): 99%; inhibition at 300 g/ha (POAAN (annual bluegrass); Poa annua, 300 g/ha, read-out: Percent inhibition POAAN): 100%; inhibition at 900 g/ha (POAAN (annual bluegrass); Poa annua, 900 g/ha, read-out: Percent inhibition POAAN): 100%; inhibition at 30 g/ha (LOLMG (annual ryegrass); Lolium multiflorum, weed, PPI application, 30 g/ha, read-out: Percent inhibition LOLMG): 95%; inhibition at 100 g/ha (LOLMG (annual ryegrass); Lolium multiflorum, weed, PPI application, 100 g/ha, read-out: Percent inhibition LOLMG): 95%; inhibition at 300 g/ha (LOLMG (annual ryegrass); Lolium multiflorum, weed, PPI application, 300 g/ha, read-out: Percent inhibition LOLMG): 100%; inhibition at 900 g/ha (LOLMG (annual ryegrass); Lolium multiflorum, weed, PPI application, 900 g/ha, read-out: Percent inhibition LOLMG): 100%
CCN(CC)C(=O)n1cnc(S(=O)(=O)C(F)(F)F)n1 [Example 2] | 300 g/ha | [empty] | – | 30 | – | – | 0 | 20 | 20 | 70 | 80 | 100 | 100 | 100 | 40 | 99 | 100 | 100 | –
CCN(CC)C(=O)n1cnc(S(=O)(=O)C(F)(F)Cl)n1 [Example 3] | 100 g/ha | [empty] | – | 30 | – | – | 0 | 50 | 40 | 90 | 70 | 100 | 100 | 100 | 40 | 100 | 100 | 100 | –
CCN(CC)C(=O)n1cnc(S(=O)(=O)C(F)(F)C(F)(F)Br)n1 [Example 4] | 300 g/ha | 300 g/ha | – | 10 | – | – | 0 | 30 | 50 | 30 | 95 | 75 | 100 | 100 | 80 | 100 | 100 | 100 | –
CCN(CC)C(=O)n1cnc(S(=O)(=O)C(F)(F)C(=O)c2ccccc2)n1 [Example 6] | * (activity observed, at least at highest rate, but <80% inhibition) | 300 g/ha | – | 100 | [empty] | 300 g/ha | – | – | – | – | – | – | – | – | – | – | – | – | –
CCN(CC)C(=O)n1cnc(S(=O)(=O)C(F)(F)SCC(=O)OC)n1 [Example 11] | – | [empty] | [empty] | – | [empty] | [empty] | 0 | 0 | 0 | 10 | 0 | 0 | 0 | 70 | 40 | 70 | 99 | 95 | Percent inhibition AEGCY ([3]; weed, PPI application, 10 g/ha): 0%; Percent inhibition POAAN (POAAN (annual bluegrass); 10 g/ha): 0%; Percent inhibition LOLMG (LOLMG (annual ryegrass); weed, PPI application, 10 g/ha): 20%
CCN(CC)C(=O)n1cnc(S(=O)(=O)C(F)(F)C(F)(F)SC)n1 [Example 14] | 300 g/ha | 300 g/ha | [empty] | 30 | – | – | – | – | – | – | – | – | – | – | – | – | – | – | –
CCN(CC)C(=O)n1cnc(S(=O)(=O)C(F)F)n1 [Example 15, 1-(N,N-diethylcarbamoyl)-3-(difluoromethylsulfonyl)-1,2,4-triazole] | 300 g/ha | – | [empty] | – | [empty] | 100 g/ha | – | – | – | – | – | – | – | – | – | – | – | – | inhibition at 10 g/ha [1, 4]: 0%; inhibition at 30 g/ha [1, 4]: 0%; inhibition at 100 g/ha [1, 4]: 40%; inhibition at 300 g/ha [1, 4]: 50%; inhibition at 900 g/ha ([1]; Urochloa platyphylla, pre-emergence application, 900 g/ha, read-out: Percent inhibition, weed BRAPP): 85%
CCN(CC)C(=O)n1cnc(S(=O)(=O)C(F)(F)C(F)F)n1 [Example 16] | 300 g/ha | [empty] | – | 30 | 300 g/ha | 300 g/ha | 0 | 0 | 20 | 60 | 50 | 65 | 100 | 100 | 35 | 90 | 95 | 100 | Percent inhibition AEGCY ([3]; weed, PPI application, 10 g/ha): 0%; Percent inhibition POAAN (POAAN (annual bluegrass); 10 g/ha): 20%; Percent inhibition LOLMG (LOLMG (annual ryegrass); weed, PPI application, 10 g/ha): 45%
